Here are results for 7 molecules from ChEMBL document CHEMBL1201862, “PubChem BioAssay data set” (2004).

The source made the active and inactive calls.

The target in experiment [1] is Tyrosine-protein phosphatase non-receptor type 5 (Homo sapiens, UniProt P54829). Description: PTPN5 enzyme inhibition – biochemical, fluorescence intensity, uHTS hits, confirmation (AID 602372). Type of experiment: functional. To be noted: read-out: IC50_Mean.
In experiment [2] the target is Tyrosine-protein phosphatase non-receptor type 11 (Homo sapiens, UniProt Q06124). As to the kind of experiment: PTPN11 enzyme inhibitors – biochemical, selectivity assay for STEP inhibitor project, dose response (AID 602367). Type of experiment: functional. To be noted: read-out: IC50_Mean.
Chain of Tyrosine-protein phosphatase non-receptor type 11 (Q06124 whole entry): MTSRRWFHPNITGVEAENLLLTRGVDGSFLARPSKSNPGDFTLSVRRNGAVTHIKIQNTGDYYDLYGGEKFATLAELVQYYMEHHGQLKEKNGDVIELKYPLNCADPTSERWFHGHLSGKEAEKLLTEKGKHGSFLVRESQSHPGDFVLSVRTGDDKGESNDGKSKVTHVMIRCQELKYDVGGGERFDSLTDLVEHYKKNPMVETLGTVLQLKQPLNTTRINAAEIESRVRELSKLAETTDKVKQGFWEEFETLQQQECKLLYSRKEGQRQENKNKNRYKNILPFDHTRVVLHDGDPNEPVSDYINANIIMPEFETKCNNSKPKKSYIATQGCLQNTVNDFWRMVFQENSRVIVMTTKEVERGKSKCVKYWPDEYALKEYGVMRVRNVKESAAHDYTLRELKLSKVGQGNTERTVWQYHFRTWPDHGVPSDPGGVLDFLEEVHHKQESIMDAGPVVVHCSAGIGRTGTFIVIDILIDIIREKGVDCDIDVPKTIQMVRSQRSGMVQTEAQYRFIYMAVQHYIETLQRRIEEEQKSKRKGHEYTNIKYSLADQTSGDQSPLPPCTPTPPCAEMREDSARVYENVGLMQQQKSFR
For experiment [3], the target named is Dual specificity protein phosphatase 3 (Homo sapiens, UniProt P51452). As to the kind of experiment: VHR phosphatase inhibition, dose response, selectivity assay for STEP inhibitor project, biochemical (AID 602374). Type of experiment: functional. The note with it: read-out: IC50_Mean.
Chain of Dual specificity protein phosphatase 3 (P51452 whole entry): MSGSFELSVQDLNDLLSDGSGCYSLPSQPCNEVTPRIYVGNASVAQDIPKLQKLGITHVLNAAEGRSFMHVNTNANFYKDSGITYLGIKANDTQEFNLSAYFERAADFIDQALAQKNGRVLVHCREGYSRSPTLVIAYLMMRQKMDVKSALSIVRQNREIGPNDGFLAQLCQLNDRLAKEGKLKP
For experiment [4], the target named is T1, Low molecular weight phosphotyrosine protein phosphatase (Homo sapiens, UniProt P24666). In kind it is functional. The note with it: read-out: IC50_Mean.
T1 sequence (P24666 whole entry): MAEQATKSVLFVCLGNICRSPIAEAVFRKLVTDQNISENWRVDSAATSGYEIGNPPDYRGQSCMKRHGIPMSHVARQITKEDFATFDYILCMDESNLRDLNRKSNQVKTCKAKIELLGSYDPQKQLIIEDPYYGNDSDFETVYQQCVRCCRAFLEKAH
Experiment [5] has as its target T2, Zinc finger protein mex-5 (Caenorhabditis elegans, UniProt Q9XUB2).
T2 sequence (Q9XUB2 whole entry): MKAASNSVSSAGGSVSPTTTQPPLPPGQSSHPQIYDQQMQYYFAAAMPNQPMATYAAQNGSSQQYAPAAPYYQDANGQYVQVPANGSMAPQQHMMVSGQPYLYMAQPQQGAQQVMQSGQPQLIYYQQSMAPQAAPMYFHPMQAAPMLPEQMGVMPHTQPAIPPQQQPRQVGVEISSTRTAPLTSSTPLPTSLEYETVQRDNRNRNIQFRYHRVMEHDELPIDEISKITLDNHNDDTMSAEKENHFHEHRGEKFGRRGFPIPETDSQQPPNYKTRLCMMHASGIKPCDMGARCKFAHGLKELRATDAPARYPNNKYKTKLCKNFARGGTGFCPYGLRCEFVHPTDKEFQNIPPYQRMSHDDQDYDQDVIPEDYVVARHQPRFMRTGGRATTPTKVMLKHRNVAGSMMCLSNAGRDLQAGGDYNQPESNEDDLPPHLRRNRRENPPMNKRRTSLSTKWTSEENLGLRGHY
As to the kind of experiment: potency of MEX-5 RNA-binding blockers – biochemical, C. elegans, fluorescence polarization, dose response (AID 1960).

The target in experiment [6] is T3, RNA-binding protein pos-1 (Caenorhabditis elegans, UniProt G5EF15).
T3 sequence (G5EF15 whole entry): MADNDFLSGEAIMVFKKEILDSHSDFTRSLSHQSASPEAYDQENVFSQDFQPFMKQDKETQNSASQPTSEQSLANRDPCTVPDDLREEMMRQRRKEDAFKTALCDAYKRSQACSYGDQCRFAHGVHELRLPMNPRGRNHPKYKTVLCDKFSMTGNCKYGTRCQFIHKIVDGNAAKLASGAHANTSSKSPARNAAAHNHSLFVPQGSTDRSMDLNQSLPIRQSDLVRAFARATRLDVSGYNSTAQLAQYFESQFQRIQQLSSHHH
Description: disruptors of C. elegans POS-1 RNA interaction – biochemical, fluorescence polarization, dose response (AID 1964).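 Further: purified POS-1 fused to maltose binding protein made in E. coli; potency of compounds blocking POS-1 binding to fluorescent RNA.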

The target in experiment [7] is T1, Low molecular weight phosphotyrosine protein phosphatase. In kind it is functional. The note with it: read-out: IC50_Mean. The source holds these as a separate data set.
Experiment [8] has as its target Nuclear receptor subfamily 5 group A member 2 (Homo sapiens, UniProt O00482). In kind it is functional, cell-based.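 Further: HEK293T cells transfected with LRH-1 and a StAR promoter luciferase reporter; potency for inhibitors that lower LRH-1 driven reporter light.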
A short description of experiment [9]: Luminescence Cell-Based Dose Confirmation HTS to Identify Inhibitors of Platelet Dense Granule Release. [Related pubchem assays: 1663 (Primary HTS), 1678 (Summary of Project)]. Type of experiment: functional.
Experiment [10] is described as follows: nonselective StAR promoter luciferase inhibitors – cell-based, luminescence, luciferase reporter, counter-screen for LRH-1 inverse agonist project, dose response (AID 651969). In kind it is functional.
The target of experiment [11] is Luciferin 4-monooxygenase (Photinus pyralis, UniProt P08659). As to the kind of experiment: inhibition of purified Photinus pyralis luciferase – biochemical, luminescence, dose response (AID 1891).
Chain of Luciferin 4-monooxygenase (P08659 whole entry): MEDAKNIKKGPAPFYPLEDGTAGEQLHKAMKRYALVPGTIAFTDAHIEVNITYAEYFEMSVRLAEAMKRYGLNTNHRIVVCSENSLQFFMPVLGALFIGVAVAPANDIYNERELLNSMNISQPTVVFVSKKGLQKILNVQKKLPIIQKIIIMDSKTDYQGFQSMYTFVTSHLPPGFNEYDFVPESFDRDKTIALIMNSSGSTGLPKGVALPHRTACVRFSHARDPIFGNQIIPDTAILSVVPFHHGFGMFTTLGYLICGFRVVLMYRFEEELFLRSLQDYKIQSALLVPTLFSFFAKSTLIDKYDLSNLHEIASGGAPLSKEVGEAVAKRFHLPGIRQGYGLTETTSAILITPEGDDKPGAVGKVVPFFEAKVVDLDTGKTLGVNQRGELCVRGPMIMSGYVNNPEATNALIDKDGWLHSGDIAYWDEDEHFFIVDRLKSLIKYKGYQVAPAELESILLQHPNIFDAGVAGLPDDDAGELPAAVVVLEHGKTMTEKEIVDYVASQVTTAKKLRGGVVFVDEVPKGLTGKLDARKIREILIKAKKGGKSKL
Another experiment addresses Steroidogenic factor 1 (Homo sapiens, UniProt Q13285). As to the kind of experiment: Counterscreen for inverse agonists of the liver receptor homolog-1 (LRH-1; NR5A2): Luminescence-based cell-based high throughput dose response assay to identify inverse agonists of the Steroidogenic Factor 1 Nuclear Receptor (SF1; NR5A1). Type of experiment: functional.
The nature of experiment [12]: alpha-synuclein stem-loop luciferase translation blockers – H4 neuroglioma cells, luminescence, confirmation (AID 1988). Type of experiment: functional, cell-based.
A short description of experiment [13]: Luminescence Cell-Based Dose Response HTS to Identify Inhibitors of 5'UTR Stem-Loop Driven Prion Protein mRNA Translation in H4 Neuroglioblastoma Cells. [Related pubchem assays: 1827 (Project Summary), 1813 (Primary HTS)]. Type of experiment: functional.
Experiment [14] is described as follows: THP-1 cell cytotoxicity, dose response, cytotoxicity control for non-replicating M. tuberculosis project (AID 489025). In kind it is functional.
A short description of experiment [15]: HepG2 cell cytotoxicity, dose response, cytotoxicity control for non-replicating M. tuberculosis project (AID 489018). Type of experiment: functional. The note with it: Mycobacterium tuberculosis.
Experiment [16] concerns the target T4, Melanocortin receptor 4 (Homo sapiens, UniProt P32245). Type of experiment: functional, cell-based.
Another experiment is described as follows: cells. In kind it is functional.
Experiment [17] is described as follows: luciferase reporter signal suppression in cells – H4 neuroglioma cells, luminescence, dose response (AID 1990). Type of experiment: functional, cell-based.
Experiment [18] is described as follows: Vero E6 cell cytotoxicity, dose response, cytotoxicity control for non-replicating M. tuberculosis project, secondary assay (AID 492998). Type of experiment: functional, VeroE6. The note with it: Vero C1008.
The target in a further experiment is Beta Lactamase (Pseudomonas aeruginosa, UniProt Q932Y6). Description: BLA reporter interference, concentration series – BLA reporter cells, FRET fluorescence, artefact control for NOD2-RIPK2 interaction inhibitor project, dose response (AID 651552). In kind it is functional, cell-based.
Chain of Beta Lactamase (Q932Y6 whole entry): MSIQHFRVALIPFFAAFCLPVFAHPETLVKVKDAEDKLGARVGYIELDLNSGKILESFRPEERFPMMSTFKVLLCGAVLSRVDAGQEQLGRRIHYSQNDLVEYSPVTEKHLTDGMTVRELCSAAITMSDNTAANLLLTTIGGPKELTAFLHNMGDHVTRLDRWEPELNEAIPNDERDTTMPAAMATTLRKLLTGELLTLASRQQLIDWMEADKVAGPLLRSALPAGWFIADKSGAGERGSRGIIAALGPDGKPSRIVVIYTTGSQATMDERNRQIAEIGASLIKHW
The nature of experiment [19]: loss of viability in HepG2 cells – cell-based, CellTiter-Glo, cherry-picked, cytotoxicity control for Shn3 inhibitor project, dose response (AID 624134). Type of experiment: functional.
A short description of experiment [20]: Fluorescence-based cell-based high throughput dose response assay for inhibitors of the interaction of nucleotide-binding oligomerization domain containing 2 (NOD2) and the receptor-interacting serine-threonine kinase 2 (RIPK2). The note with it: Homo sapiens. Type of experiment: functional.
A short description of experiment [21]: non-specific 3'UTR reporter inhibition in Clone20-Shn3RL – cell-based, Renilla luciferase, cherry-picked, counter-screen for Shn3 inhibitor project, dose response (AID 624133). In kind it is functional.
In experiment [22] the target is T5, Replicative DNA helicase DnaB (Mycobacterium tuberculosis, UniProt P9WMR3).
T5 sequence (P9WMR3 whole entry): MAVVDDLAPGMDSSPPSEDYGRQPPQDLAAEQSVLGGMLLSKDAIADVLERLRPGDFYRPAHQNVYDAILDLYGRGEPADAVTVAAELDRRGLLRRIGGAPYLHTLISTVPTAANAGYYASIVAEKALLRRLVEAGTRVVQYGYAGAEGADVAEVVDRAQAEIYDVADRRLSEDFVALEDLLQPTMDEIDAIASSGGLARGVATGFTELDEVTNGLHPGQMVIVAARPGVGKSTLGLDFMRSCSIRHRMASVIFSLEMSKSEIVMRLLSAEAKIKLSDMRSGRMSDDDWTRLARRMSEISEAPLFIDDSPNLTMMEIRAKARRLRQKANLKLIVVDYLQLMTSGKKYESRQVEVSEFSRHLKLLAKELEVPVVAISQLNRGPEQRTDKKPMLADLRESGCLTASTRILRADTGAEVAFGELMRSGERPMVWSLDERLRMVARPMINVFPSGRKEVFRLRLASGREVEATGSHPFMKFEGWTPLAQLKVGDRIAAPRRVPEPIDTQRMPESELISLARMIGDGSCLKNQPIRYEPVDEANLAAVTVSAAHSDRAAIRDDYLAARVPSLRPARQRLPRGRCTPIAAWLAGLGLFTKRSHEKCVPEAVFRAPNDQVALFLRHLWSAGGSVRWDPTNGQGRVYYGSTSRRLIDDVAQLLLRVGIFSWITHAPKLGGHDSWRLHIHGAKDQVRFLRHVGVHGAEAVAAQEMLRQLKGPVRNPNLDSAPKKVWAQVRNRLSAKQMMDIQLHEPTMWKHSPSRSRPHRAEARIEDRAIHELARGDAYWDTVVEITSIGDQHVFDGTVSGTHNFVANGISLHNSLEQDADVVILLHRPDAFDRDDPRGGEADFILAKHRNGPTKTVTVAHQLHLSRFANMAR
As to the kind of experiment: DnaB intein splicing inhibitors, dose response, biochemical, cell-free fluorescence (AID 449749). In kind it is functional.

A short description of experiment [23]: cAMP pathway inhibition in counterscreen cell line – TR-FRET cAMP detection, counter-screen for MC4R biased antagonist project, dose response (AID 602305).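 Further: U2OS cells stimulated with forskolin near its EC80 as the cAMP inducer; potency is for inhibition of forskolin-stimulated cAMP signaling.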 Type of experiment: functional, cell-based.
Experiment [24] can be described thus: reduction of Shn3 3'UTR-driven luciferase in osteoblasts – cell-based, Clone20 osteoblasts, firefly luciferase, cherry-picked, dose response (AID 624132).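 Further: firefly luciferase luminescence from reporter carrying the Shn3 3'UTR in osteoblasts.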 In kind it is functional.
The target of another experiment is T6, Protein RecA (Mycobacterium tuberculosis, UniProt P9WHJ3).
T6 sequence (P9WHJ3 whole entry): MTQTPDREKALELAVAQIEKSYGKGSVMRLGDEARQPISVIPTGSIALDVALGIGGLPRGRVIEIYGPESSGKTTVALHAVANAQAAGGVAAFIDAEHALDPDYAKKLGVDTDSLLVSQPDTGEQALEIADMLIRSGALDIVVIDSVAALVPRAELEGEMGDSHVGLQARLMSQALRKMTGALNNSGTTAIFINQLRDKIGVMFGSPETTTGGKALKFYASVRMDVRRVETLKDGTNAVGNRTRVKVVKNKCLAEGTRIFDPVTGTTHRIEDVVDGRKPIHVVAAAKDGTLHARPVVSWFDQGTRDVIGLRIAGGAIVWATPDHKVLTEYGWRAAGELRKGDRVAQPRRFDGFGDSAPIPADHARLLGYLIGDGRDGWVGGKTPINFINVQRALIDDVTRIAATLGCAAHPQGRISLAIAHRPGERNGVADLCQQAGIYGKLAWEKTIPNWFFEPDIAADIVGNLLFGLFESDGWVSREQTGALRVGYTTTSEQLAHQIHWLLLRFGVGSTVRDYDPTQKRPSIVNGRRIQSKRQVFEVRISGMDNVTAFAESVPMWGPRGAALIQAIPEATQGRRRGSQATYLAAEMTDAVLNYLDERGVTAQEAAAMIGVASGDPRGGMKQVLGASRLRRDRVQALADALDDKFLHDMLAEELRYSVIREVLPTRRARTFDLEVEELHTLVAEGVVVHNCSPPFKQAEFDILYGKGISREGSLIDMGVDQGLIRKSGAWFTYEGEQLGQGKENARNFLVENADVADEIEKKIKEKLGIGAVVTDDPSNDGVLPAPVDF
As to the kind of experiment: Fluorescence Cell-Free Homogeneous Dose Retest to Identify Inhibitors of RecA-Intein Splicing Activity. [Related pubchem assays (depositor defined):AID2097, AID2223, AID489010, AID492950]. Type of experiment: functional.

Experiment [25] deals with T4, Melanocortin receptor 4. As to the kind of experiment: inhibitors of MC4R cAMP signaling – cell-based, TR-FRET, biased antagonists, dose response (AID 602298).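 Further: antagonist potency against agonist-stimulated cAMP production.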 Type of experiment: functional.
For experiment [26], the target named is Induced myeloid leukemia cell differentiation protein Mcl-1 (Homo sapiens, UniProt Q07820). Type of experiment: functional.
Chain of Induced myeloid leukemia cell differentiation protein Mcl-1 (Q07820 whole entry, the tested form may be a part): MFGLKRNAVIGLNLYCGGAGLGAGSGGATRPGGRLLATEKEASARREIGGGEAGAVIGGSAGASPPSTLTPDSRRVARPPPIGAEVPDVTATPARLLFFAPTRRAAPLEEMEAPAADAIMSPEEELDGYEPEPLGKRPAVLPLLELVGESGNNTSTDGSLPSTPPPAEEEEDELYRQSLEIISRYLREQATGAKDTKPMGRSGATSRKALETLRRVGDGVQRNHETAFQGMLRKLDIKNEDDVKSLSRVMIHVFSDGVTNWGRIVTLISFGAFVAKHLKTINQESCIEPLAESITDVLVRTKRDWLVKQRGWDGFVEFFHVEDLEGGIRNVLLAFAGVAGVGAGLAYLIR
The target in experiment [27] is Hepatocyte nuclear factor 4-alpha (Homo sapiens, UniProt P41235). In kind it is functional, cell-based.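 Further: biochemical luminescence-based dose-response counterscreen measuring inhibition of HNF4 dimerization, run alongside a screen for blockers of ABHD5–perilipin-5 interaction; split luciferase complementation of HNF4 fusion proteins in cell lysate measuring dimerization.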
Chain of Hepatocyte nuclear factor 4-alpha (P41235 whole entry, the tested form may be a part): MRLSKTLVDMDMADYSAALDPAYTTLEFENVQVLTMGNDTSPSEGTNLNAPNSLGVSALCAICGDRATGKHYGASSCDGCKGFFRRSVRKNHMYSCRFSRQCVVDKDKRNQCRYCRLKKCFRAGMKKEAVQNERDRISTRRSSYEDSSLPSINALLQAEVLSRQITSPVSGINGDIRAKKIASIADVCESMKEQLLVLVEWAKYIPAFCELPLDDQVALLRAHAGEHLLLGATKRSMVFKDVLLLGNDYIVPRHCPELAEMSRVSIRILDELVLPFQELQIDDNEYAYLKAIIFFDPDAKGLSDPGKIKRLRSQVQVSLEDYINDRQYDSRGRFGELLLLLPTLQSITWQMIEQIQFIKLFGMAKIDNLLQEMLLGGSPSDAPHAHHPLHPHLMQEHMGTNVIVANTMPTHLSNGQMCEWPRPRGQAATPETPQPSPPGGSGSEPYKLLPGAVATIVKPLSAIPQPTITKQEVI
Experiment [28] has as its target V-type proton ATPase subunit c' (Saccharomyces cerevisiae S288c, UniProt P32842). Description: Dose Response of Small Molecules that Regulate V-ATPase Proton Transport in Yeast using pHLuorin, Cherry Pick 2. The note with it: read-out: EC50_MICROM. In kind it is functional.
Another experiment concerns Vero. As to the kind of experiment: cells. Type of experiment: functional. The note with it: Chlorocebus sabaeus.

T4 sequence (P32245 whole entry): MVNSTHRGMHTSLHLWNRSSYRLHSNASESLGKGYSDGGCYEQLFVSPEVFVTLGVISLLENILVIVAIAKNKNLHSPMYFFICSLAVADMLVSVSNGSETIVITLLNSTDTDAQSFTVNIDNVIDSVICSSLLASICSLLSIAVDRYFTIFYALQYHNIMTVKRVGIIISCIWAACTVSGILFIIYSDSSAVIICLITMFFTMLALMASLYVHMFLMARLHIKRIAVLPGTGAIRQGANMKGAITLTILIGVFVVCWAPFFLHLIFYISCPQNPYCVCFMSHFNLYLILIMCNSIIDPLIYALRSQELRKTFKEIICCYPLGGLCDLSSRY
Chain of Steroidogenic factor 1 (Q13285 whole entry): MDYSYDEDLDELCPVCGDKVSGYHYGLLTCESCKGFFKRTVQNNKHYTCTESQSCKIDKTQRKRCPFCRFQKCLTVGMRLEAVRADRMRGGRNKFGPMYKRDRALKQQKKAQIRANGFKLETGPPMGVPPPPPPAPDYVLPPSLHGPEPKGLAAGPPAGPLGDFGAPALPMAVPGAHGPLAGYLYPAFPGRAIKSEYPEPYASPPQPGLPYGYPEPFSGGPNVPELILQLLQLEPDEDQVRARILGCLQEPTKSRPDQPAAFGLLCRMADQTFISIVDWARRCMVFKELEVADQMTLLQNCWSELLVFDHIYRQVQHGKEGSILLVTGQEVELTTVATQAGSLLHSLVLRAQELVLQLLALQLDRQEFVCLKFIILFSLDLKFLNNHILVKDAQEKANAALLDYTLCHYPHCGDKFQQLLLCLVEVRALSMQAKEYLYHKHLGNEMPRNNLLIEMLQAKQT
Chain of V-type proton ATPase subunit c' (P32842 whole entry): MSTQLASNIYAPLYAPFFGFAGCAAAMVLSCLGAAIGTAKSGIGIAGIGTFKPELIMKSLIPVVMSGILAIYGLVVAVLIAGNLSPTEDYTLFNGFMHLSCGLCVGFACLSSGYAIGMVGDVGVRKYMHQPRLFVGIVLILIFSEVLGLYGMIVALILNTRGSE
Chain of Tyrosine-protein phosphatase non-receptor type 5 (P54829 whole entry): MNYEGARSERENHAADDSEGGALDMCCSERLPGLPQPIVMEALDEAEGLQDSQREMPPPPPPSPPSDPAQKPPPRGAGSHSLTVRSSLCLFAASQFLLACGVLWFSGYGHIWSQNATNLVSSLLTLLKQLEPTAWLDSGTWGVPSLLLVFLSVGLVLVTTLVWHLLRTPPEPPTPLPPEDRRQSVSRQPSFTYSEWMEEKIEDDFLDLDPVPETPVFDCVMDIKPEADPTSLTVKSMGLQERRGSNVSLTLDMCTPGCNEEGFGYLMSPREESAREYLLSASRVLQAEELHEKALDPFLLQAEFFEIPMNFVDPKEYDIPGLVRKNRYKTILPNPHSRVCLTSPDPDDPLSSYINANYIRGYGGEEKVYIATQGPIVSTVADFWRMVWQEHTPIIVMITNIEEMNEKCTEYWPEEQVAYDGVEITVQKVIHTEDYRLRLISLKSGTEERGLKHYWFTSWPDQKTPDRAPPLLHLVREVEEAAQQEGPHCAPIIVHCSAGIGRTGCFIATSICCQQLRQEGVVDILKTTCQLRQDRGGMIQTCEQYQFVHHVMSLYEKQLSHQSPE
Chain of Nuclear receptor subfamily 5 group A member 2 (O00482 whole entry): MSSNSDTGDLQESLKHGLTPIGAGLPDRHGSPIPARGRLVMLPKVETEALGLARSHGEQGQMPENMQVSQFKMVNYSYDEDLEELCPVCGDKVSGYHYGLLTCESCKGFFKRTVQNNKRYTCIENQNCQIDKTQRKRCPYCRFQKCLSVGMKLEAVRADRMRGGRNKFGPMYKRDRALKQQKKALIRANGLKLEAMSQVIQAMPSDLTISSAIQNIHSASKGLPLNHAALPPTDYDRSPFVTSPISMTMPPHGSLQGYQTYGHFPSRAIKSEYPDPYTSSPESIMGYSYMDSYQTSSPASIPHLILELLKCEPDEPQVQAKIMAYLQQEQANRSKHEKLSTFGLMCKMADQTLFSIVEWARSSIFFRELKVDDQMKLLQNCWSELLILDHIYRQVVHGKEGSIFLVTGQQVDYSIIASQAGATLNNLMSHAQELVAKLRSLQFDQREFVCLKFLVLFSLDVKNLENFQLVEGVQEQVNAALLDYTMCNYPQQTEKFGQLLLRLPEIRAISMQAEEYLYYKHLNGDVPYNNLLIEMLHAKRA

`Cc1ccc(NC(=O)CCn2c(=S)oc3ccccc32)cc1F`: the IC50 is > 80 µM (inactive) in experiment [1], 3.14 µM (active) in experiment [2] and 7.02 µM (active) in experiment [3].

`N#CC1=C(N)OC2=C(C(=O)CC(c3ccco3)C2)C1c1ccc(OCc2c(F)cccc2Cl)cc1` (stereo not drawn): the IC50 was 35.1 µM (inactive) in experiment [4] and > 80 µM (inactive) in [7]. The EC50 in experiment [5] and in [6] was > 300 µM (not active) each time.

As to `CCC(=O)Nc1nnc(SCC(=O)NCCc2ccc(OC)c(OC)c2)s1`, the IC50 in experiment [8] is 12 µM (inactive); in experiment [10] it was 35.9 µM (inactive); on Steroidogenic factor 1, 2.05 µM (active). Moreover, the EC50 in [9] and in [11] was > 112 µM (not active) in each case.

In the case of `CN(C)CCCN(C(=O)CCc1ccccc1)c1nc2ccc(Cl)cc2s1`, the EC50 in [12] was > 120 µM (not active); in experiment [13], > 120 µM (not active); on Melanocortin receptor 4 [16] it was > 89.2 µM (inactive); in experiment [17], > 60 µM (not active). Besides, the half-maximal cytotoxic concentration (CC50) in [14] is 16.6 µM (active); in [15], 12.4 µM (active); in experiment [18] it was 17.1 µM (active). The IC50 in the experiment “cells” is 22.9 µM (active).

In the case of `Cc1cccc(CS(=O)(=O)c2ncc(Cl)c(C(=O)NCc3ccc4c(c3)OCO4)n2)c1`, the IC50 at Beta Lactamase was 21.1 µM (inactive); in [20], 3.95 µM (active); in [23] it was > 64.6 µM (inactive); on Melanocortin receptor 4 [25] it was > 64.6 µM (inactive). Further, the AC50 is 41.3 µM (active) in [19], 11.3 µM (active) in [21], 3.39 µM (active) in experiment [22] and 0.938 µM (active) in experiment [24]. At Protein RecA, the EC50 is 3.52 µM (active).

Take `Cc1cccc(NC(=O)CSc2nnc(-c3ccco3)c(-c3ccco3)n2)c1`: the IC50 in experiment [26] is 5.78 µM (active); in experiment [27] it was 1.42 µM (active).

`CN1C(=O)/C(=C\c2ccc(Br)s2)C(=O)NC1=S`: the EC50 in experiment [28] was 6.43 µM (active). In addition, the CC50 in the experiment with Vero was 22.9 µM (active).
